For experiment [1], the system named is primary human fibroblasts derived from IPF patients (LL29 cells). As to the kind of experiment: Inhibition of the fibrotic process in TGF-β1 treated IPF patient fibroblasts (αSMA staining). It is filed as cell-based. The following applies: Fibroblast, 96 h, LL29 cells treated with TGF-β1 (20 ng/mL), 4 days, read-out: Inhibition of fibrosis EC50. The source says: The above synthesized compounds were screened using primary human fibroblasts (derived from IPF patients) treated with TGF-β1 to determine their ability to inhibit the fibrotic process.
Primary human fibroblasts derived from IPF patients (LL29 cells) [^1Xiaoqiu Liu, et. al., “Fibrotic Lung Fibroblasts Show Blunted Inhibition by cAMP Due to Deficient cAMP Response Element-Binding Protein Phosphorylation”, Journal of Pharmacology and Experimental Therapeutics (2005), 315(2), 678-687; ^2Watts, K. L., et. al., “RhoA signaling modulates cyclin D1 expression in human lung fibroblasts; implications for idiopathic pulmonary fibrosis”, Respiratory Research (2006), 7(1), 88] were obtained from American Type Culture Collection (ATCC) and expanded in F12 medium supplemented with 15% Fetal Bovine Serum and Penicillin/Streptomycin.
Each compound was dissolved in DMSO as a 10 mM stock and used to prepare compound source plates. Serial dilution (1:2, 11-point dose-response curves from 10 μM to 1.87 nM) and compound transfer was performed using the ECHO 550 (Labcyte, Sunnyvale, Calif.) into 384-well clear bottom assay plates (Greiner Bio-One) with appropriate DMSO backfill for a final DMSO concentration of 0.1%. LL29 cells were plated at 1,500 cells/well in 80 μl/well F12 medium supplemented with 1% Fetal Bovine Serum. One hour after addition of the cells, TGF-β1 (Peprotech; 20 ng/mL) was added to the plates to induce fibrosis (ref. 1 and 2 above). Wells treated with TGF-β1 and containing DMSO were used as controls. Cells were incubated at 37° C. and 5% CO2 for 4 days. Following incubation for 4 days, SYTOX green nucleic acid stain (Life Technologies [Thermo Fisher Scientific]) was added to the wells at a final concentration of 1 uM and incubated at room temperature for 30 min. Cells were then fixed using 4% formaldehyde (Electron Microscopy Sciences), washed 3 times with PBS followed by blocking and permeabilization using 3% Bovine Serum Albumin (BSA; Sigma) and 0.3% Triton X-100 (Sigma) in PBS. Cells were then stained with antibody specific to α-smooth muscle actin (αSMA; Abcam) (ref. 1 and 2 above) in 3% Bovine Serum Albumin (BSA; Sigma) and 0.3% Triton X-100 (Sigma) in PBS, and incubated overnight at 4° C. Cells were then washed 3 times with PBS, followed by incubation with Alexa Flor-647 conjugated secondary antibody (Life Technologies [Thermo Fisher Scientific]) and DAPI at room temperature for 1 hour. Cells were then washed 3 times with PBS and plates were sealed for imaging. αSMA staining was imaged by excitation at 630 nm and emission at 665 nm and quantified using the Compartmental Analysis program on the CellInsight CX5 (Thermo Scientific). Dead or apoptotic cells were excluded from analysis based on positive SYTOX green staining. % of total cells positive for αSMA were counted in each well and normalized to the average of 11 wells treated with TGF-β1 on the same plate using Dotmatics' Studies Software. The normalized averages (fold change over untreated) of 3 replicate wells for each compound concentration were used to create dose-responses curves and EC50 values were calculated using non-linear regression curve fit in the Dotmatics' Studies Software. The EC50 values are reported.

The subject of experiment [2] is Wnt activity (SW480 colon carcinoma cells stably expressing the Sp5-Luc reporter gene). Kind of experiment: Sp5-Luc reporter gene screening assay for Wnt activity. As to conditions: Homo sapiens. It is filed as cell-based. From the text:
The screening assay for Wnt activity is described as follows. Reporter cell lines can be generated by stably transducing cancer cell lines (e.g., colon cancer) or primary cells (e.g., IEC-6 intestinal cells) with a lentiviral construct that includes a Wnt-responsive promoter driving expression of the firefly luciferase gene.
SW480 colon carcinoma cells were transduced with a lentiviral vector expressing luciferase with a human Sp5 promoter consisting of a sequence of eight TCF/LEF binding sites. SW480 cells stably expressing the Sp5-Luc reporter gene and a hygromycin resistance gene were selected by treatment with 150 μg/ml of hygromycin for 7 days. These stably transduced SW480 cells were expanded in cell culture and used for all further screening activities. For Sp5-Luc reporter gene assays, the cells were plated at 10,000 cells/well in 96-well plates with growth medium containing 10% fetal calf serum and incubated overnight at 37° C. and 5% CO2. Each compound was dissolved in DMSO as a 10 mM stock in standard j-vials and used to prepare compound source plates in dose-response format with 3-fold serial dilutions and a 10 mM top concentration. Compound transfer from serially diluted source plates to assay plates containing the cells was accomplished using a pintool (Multimek 96, Beckman equipped with V&P Scientific FP1S50H pins) based liquid handling protocol. This protocol used a slotted pin to transfer 50 nl of compound from a source plate well to an assay plate well containing 50 μl of cells in growth medium. […] Control wells received 50 nl of DMSO treatment for normalization and calculating IC50 values. The treated cells were incubated at 37° C. and 5% CO2 for an additional forty-two hours. Following incubation, the growth medium was removed and 50 μl of BrightGlo luminescence reagent (Promega) was added to each well of the 96-well assay plates. The plates were placed on an orbital shaker for 5 min and then luminescence was quantified on the Victor3 (Perkin Elmer) plate reader. Readings were normalized to DMSO only treated cells, and normalized activities were utilized for IC50 calculations using the dose-response log (inhibitor) vs. response -variable slope (four parameters) nonlinear regression feature available in GraphPad Prism 5.0 or 6.0.
A general note: A reporter such as luciferase makes a cellular process visible.

This passage reports EC50 and IC50 results from patent publication US10526347B2, “3-(3H-imidazo[4,5-B]pyridin-2-yl)-1H-pyrazolo[3,4-B]pyridine and therapeutic uses thereof” (Samumed, LLC, priority 2014, dated 2020).

What is called EC50 is the concentration needed to bring the measured effect to its halfway point. What is called IC50 is the midpoint of a concentration-inhibition curve. A low value points to inhibition by little substance. As to `CN(C)CCOc1cncc(-c2cnc3[nH]nc(-c4nc5c(-c6cccc(F)c6)ccnc5[nH]4)c3c2)c1` [Compound 919, 2-((5-(3-(7-(3-Fluorophenyl)-3H-imidazo[4,5-b]pyridin-2-yl)-1H-pyrazolo [3,4-b]pyridin-5-yl)pyridin-3-yl)oxy)-N,N-dimethylethan-1-amine], the EC50 in experiment [1] was not above 9 nM. Moreover, the IC50 in experiment [2] is more than 10000 nM.
Turning to `Cc1ccncc1-c1cnc2[nH]nc(-c3nc4c(-c5ccncc5)ccnc4[nH]3)c2c1` [Compound 91, 5-(4-Methylpyridin-3-yl)-3-(7-(pyridin-4-yl)-3H-imidazo[4,5-b]pyridin-2-yl)-1H-pyrazolo[3,4-b]pyridine], in experiment [1], the EC50 was not below 9990 nM. The compound also showed an IC50 in experiment [2] of more than 10000 nM.
The matching figures for `CC(C)C(=O)Nc1cncc(-c2cnc3[nH]nc(-c4nc5c(N6CCN(C)CC6)ccnc5[nH]4)c3c2)c1` [Compound 192, N-(5-(3-(7-(4-Methylpiperazin-1-yl)-3H-imidazo[4,5-b]pyridin-2-yl)-1H-pyrazolo[3,4-b]pyridin-5-yl)pyridin-3-yl)isobutyramide]: not above 9 nM and more than 10000 nM.
Regarding `CN(C)CC(=O)Nc1cncc(-c2cnc3[nH]nc(-c4nc5c(-c6cccc(F)c6)ccnc5[nH]4)c3c2)c1` [Compound 1409, 2-(Dimethylamino)-N-(5-(3-(7-(3-fluorophenyl)-3H-imidazo[4,5-b]pyridin-2-yl)-1H-pyrazolo[3,4-b]pyridin-5-yl)pyridin-3-yl)acetamide], the EC50 in experiment [1] was not above 9 nM. This compound also displayed an IC50 in experiment [2] of 3990 nM.
As for `CC(C)Nc1cncc(-c2cnc3[nH]nc(-c4nc5c(-c6ccoc6)ccnc5[nH]4)c3c2)c1` [Compound 270, 5-(3-(7-(Furan-3-yl)-3H-imidazo[4,5-b]pyridin-2-yl)-1H-pyrazolo[3,4-b]pyridin-5-yl)-N-isopropylpyridin-3-amine], the 50% effective concentration (EC50) in experiment [1] turned out to be 786 nM. Also, in experiment [2], the concentration for half-maximal inhibition (IC50) came out at 44.3 nM.
`CN(C)Cc1cncc(-c2cnc3[nH]nc(-c4nc5c(N6CCCCC6)ccnc5[nH]4)c3c2)c1` [Compound 145, N,N-Dimethyl-1-(5-(3-(7-(piperidin-1-yl)-3H-imidazo[4,5-b]pyridin-2-yl)-1H-pyrazolo[3,4-b]pyridin-5-yl)pyridin-3-yl)methanamine]: the EC50 in experiment [1] came out at 1440 nM. Further, the IC50 in experiment [2] is 2800 nM.
With `Cc1cn(-c2ccnc3[nH]c(-c4n[nH]c5ncc(-c6cncc(NC(=O)C(C)(C)C)c6)cc45)nc23)cn1` [Compound 165, N-(5-(3-(7-(4-Methyl-1H-imidazol-1-yl)-3H-imidazo[4,5-b]pyridin-2-yl)-1H-pyrazolo[3,4-b]pyridin-5-yl)pyridin-3-yl)pivalamide], the EC50 in experiment [1] was not below 9990 nM. The IC50 in experiment [2] is more than 10000 nM.
With `Fc1cccc(-c2ccnc3[nH]c(-c4n[nH]c5ncc(C6CCNCC6)cc45)nc23)c1` [Compound 909, 3-(7-(3-Fluorophenyl)-3H-imidazo[4,5-b]pyridin-2-yl)-5-(piperidin-4-yl)-1H-pyrazolo[3,4-b]pyridine], the EC50 in experiment [1] is not below 9990 nM. The compound also came in with an IC50 in experiment [2] of more than 10000 nM.
On to `O=C(Cc1ccccc1)Nc1cncc(-c2cnc3[nH]nc(-c4nc5cccnc5[nH]4)c3c2)c1` [Compound 216, N-(5-(3-(3H-Imidazo[4,5-b]pyridin-2-yl)-1H-pyrazolo[3,4-b]pyridin-5-yl)pyridin-3-yl)-2-phenylacetamide], for which, in experiment [1], the EC50 is not below 9990 nM. Further, half-maximal inhibition in experiment [2] (IC50) required 751 nM.
As to `O=C(Nc1cncc(-c2cnc3[nH]nc(-c4nc5c(-c6ccncc6)ccnc5[nH]4)c3c2)c1)C1CCCCC1` [Compound 106, N-(5-(3-(7-(Pyridin-4-yl)-3H-imidazo[4,5-b]pyridin-2-yl)-1H-pyrazolo[3,4-b]pyridin-5-yl)pyridin-3-yl)cyclohexanecarboxamide], the EC50 in experiment [1] was not below 9990 nM. Also, the IC50 in experiment [2] was more than 10000 nM.
For the compound `CN1CCN(c2ccnc3[nH]c(-c4n[nH]c5ncc(-c6cncc(CN7CCCCC7)c6)cc45)nc23)CC1` [Compound 198, 3-(7-(4-Methylpiperazin-1-yl)-3H-imidazo[4,5-b]pyridin-2-yl)-5-(5-(piperidin-1-ylmethyl)pyridin-3-yl)-1H-pyrazolo[3,4-b]pyridine], the EC50 in experiment [1] is 3040 nM. The same compound returned an IC50 in experiment [2] of more than 10000 nM.
With `Fc1cccc(-c2ccnc3[nH]c(-c4n[nH]c5ncc(-c6cnccn6)cc45)nc23)c1` [Compound 926, 3-(7-(3-Fluorophenyl)-3H-imidazo[4,5-b]pyridin-2-yl)-5-(pyrazin-2-yl)-1H-pyrazolo[3,4-b]pyridine], in experiment [1], the EC50 came out at 13 nM. Also, the IC50 in experiment [2] is more than 10000 nM.
For `c1cncc(-c2ccnc3[nH]c(-c4n[nH]c5ncc(-c6cncc(CN7CCCCC7)c6)cc45)nc23)c1` [Compound 78, 5-(5-(Piperidin-1-ylmethyl)pyridin-3-yl)-3-(7-(pyridin-3-yl)-3H-imidazo[4,5-b]pyridin-2-yl)-1H-pyrazolo[3,4-b]pyridine], the EC50 in experiment [1] was not below 9990 nM. Moreover, the half-maximal inhibitory concentration (IC50) in experiment [2] was more than 10000 nM.
For `CC(C)(C)C(=O)Nc1cncc(-c2cnc3[nH]nc(-c4nc5c(-c6ccc(F)cc6)ccnc5[nH]4)c3c2)c1` [Compound 28, N-(5-(3-(7-(4-Fluorophenyl)-3H-imidazo[4,5-b]pyridin-2-yl)-1H-pyrazolo[3,4-b]pyridin-5-yl)pyridin-3-yl)pivalamide] the same measures were 26 nM and 42.3 nM.
Take `O=C(Nc1cncc(-c2cnc3[nH]nc(-c4nc5c(N6CCCCC6)ccnc5[nH]4)c3c2)c1)C1CC1` [Compound 151, N-(5-(3-(7-(Piperidin-1-yl)-3H-imidazo[4,5-b]pyridin-2-yl)-1H-pyrazolo[3,4-b]pyridin-5-yl)pyridin-3-yl)cyclopropanecarboxamide]: the EC50 in experiment [1] amounted to 414 nM. The compound further showed a concentration for half-maximal inhibition (IC50) in experiment [2] of 247 nM.
In the case of `CN(C)Cc1cncc(-c2cnc3[nH]nc(-c4nc5c(-c6cccc(F)c6)ccnc5[nH]4)c3c2)c1` [Compound 10, 1-(5-(3-(7-(3-Fluorophenyl)-3H-imidazo[4,5-b]pyridin-2-yl)-1H-pyrazolo[3,4-b]pyridin-5-yl)pyridin-3-yl)-N,N-dimethylmethanamine], the EC50 in experiment [1] worked out at 2550 nM. In addition, the IC50 in experiment [2] was more than 10000 nM.
For the compound `Cn1cc(-c2cnc3[nH]nc(-c4nc5c(-c6cccc(F)c6)ccnc5[nH]4)c3c2)cn1` [Compound 912, 3-(7-(3-Fluorophenyl)-3H-imidazo[4,5-b]pyridin-2-yl)-5-(1-methyl-1H-pyrazol-4-yl)-1H-pyrazolo[3,4-b]pyridine], the EC50 in experiment [1] was 118 nM. Also, in experiment [2], the IC50 was determined as 221 nM.
